These results are taken from patent US10933002B2, “Preservation booster” (DSM IP ASSETS B.V., priority 2017, dated 2021).

The assay deals with Escherichia coli. Nature of the assay: antimicrobial efficacy in analogy to the regulatory challenge test method (NF EN ISO11930). The assay is classed as cell-based. Particulars: 0.2 wt.-% test solution in physiological serum; 24 h after contamination; 22° C.; initial contamination 580000 cfu/ml. On the procedure:
The term “antimicrobial activity” (or “antimicrobial effect”) as used herein means a capability of killing and/or inhibiting the growth of pathogenic or unwanted bacteria, such as in particular Escherichia coli (Escherichia coli ATCC 8739). The applied measuring method is NF EN IS011930. The antimicrobial efficacy is assessed in analogy to the regulatory challenge test method (NF EN ISO11930). Thus, solutions of the respective active(s) in ethanol are prepared and further dissolved in physiological serum with 0.85 wt.-% NaCl in the concentrations as outlined in table 1 under sterile conditions. Samples containing phytantriol were solubilized in physiological serum supplemented with 10 wt.-% ethanol, samples containing erythrulose only were solubilized in physiological serum supplemented with 1 wt.-% ethanol. The solutions of the active(s) were deposed in 96-deep well plates (1.6 ml/well). The wells are contaminated with the Escherichia coli at 1.5*10^5 to 1*10^6 cfu/ml to obtain the initial contamination as outlined in table 1. After the contamination, each well was thoroughly mixed to ensure a homogeneous distribution of E. coli. Then each plate was incubated at 22° C. for 24 h. The counting of the (remaining) population is carried out 24 h after contamination.

Take `CC(C)CCCC(C)CCCC(C)CCCC(C)(O)C(O)CO` (stereo not shown) [phytantriol, 3,7,11,15-tetramethyl-1,2,3-hexadecanetriol]: the “Escherichia coli colony count” value is recorded as 1000 cfu/ml and the Log reduction is on record as −2.763.
Take `O=C(CO)[C@H](O)CO` (racemic) [erythrulose]: the “Escherichia coli colony count” value is 33700 cfu/ml and the Log reduction is on record as −1.236.
